Data from patent US20220048915A1 (SHANGHAI PHARMACEUTICALS HOLDING CO., LTD., priority 2018, published 2022).

Target: T1, p38γ (Homo sapiens, UniProt P53778)
T1 sequence (P53778 1-367): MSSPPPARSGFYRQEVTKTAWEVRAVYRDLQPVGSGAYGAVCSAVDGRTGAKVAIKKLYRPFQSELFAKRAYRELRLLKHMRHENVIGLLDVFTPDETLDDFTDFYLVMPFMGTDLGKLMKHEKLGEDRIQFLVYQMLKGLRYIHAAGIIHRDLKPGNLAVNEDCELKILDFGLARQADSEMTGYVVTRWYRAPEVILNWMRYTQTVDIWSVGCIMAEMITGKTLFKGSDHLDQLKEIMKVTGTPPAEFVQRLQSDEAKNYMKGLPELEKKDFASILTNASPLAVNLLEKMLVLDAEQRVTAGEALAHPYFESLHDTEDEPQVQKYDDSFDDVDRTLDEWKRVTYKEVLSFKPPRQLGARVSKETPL
Assay: In vitro inhibition of p38 kinase (LANCE Ultra TR-FRET)
Format: biochemical
Settings: read-out: Kinase in vitro IC50(nM) p38γ

IC50: > 3330 nM
SMILES: O=c1ncn2nc(Oc3ccc(F)cc3F)ccc2c1-c1c(Cl)cccc1Cl [Compound I-4, 5-(2,6-dichlorophenyl)-2-(2,4-difluorophenoxy)-6H-pyrimido[1,6-b]pyridazin-6-one]
